Assay results from patent US20210145775A1, “Treatment of intestinal barrier dysfunction and associated diseases” (CymaBay Therapeutics, Inc., priority 2019, published 2021).

How the values were obtained:
[1] = target: T1, PPARα (Homo sapiens, UniProt Q07869); conditions: cited from earlier work
T1 sequence (Q07869 1-468): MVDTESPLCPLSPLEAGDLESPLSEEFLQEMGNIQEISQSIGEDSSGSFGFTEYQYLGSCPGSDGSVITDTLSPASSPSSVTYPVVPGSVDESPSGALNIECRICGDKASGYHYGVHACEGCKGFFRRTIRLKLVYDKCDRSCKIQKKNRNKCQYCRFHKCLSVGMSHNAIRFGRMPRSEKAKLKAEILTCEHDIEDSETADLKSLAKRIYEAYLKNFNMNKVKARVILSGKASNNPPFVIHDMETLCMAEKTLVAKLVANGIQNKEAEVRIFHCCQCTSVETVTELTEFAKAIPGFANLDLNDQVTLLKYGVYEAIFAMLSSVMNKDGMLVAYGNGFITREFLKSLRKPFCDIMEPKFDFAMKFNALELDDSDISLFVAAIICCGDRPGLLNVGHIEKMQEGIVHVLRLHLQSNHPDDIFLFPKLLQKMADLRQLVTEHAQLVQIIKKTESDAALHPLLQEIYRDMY

[2] = tested on: Subjects with diagnosed irritable bowel syndrome (IBS); experiment: Clinical (oral) treatment of irritable bowel syndrome; assay type: in vivo, human
Experimental: The subjects keep a health diary in which their symptoms of irritable bowel syndrome are recorded.

[3] = tested on: male RAG2−/− mice on C57BL/6 background; experiment: Preclinical adoptive T-cell transfer colitis; assay type: in vivo; conditions: 10 mg/Kg/day in drinking water, day 14 to day 42
Excerpt: The cell donor animals are male C57BL/6 mice and the recipient animals are male RAG2^−/− mice on C57BL/6 background, aged 6-8 weeks at the start of the study. Recipient animals (20 +12 per test compound) are assigned: 5 to form a control group receiving no cell transfer or treatment, and the remainder to receive cell transfer. At day 0, the donor animals are sacrificed and spleens excised, dissociated to a single cell suspension, and the red blood cells lysed. The cell suspension is enriched for CD4+ T cells using a Miltenyi CD4+ T cell isolation kit, then further enriched for naïve CD4+ T cells using a Miltenyi naïve CD4+ T cell isolation kit. […] The animals are weighed daily and assessed visually for presence and severity of diarrhea and bloody stools, with video endoscopy on days 14, 28, and 42 to assess the severity of the colitis and score stool consistency. All animals are sacrificed at day 42 following endoscopy and samples collected: blood is collected and processed for plasma, the colon is excised, measured, rinsed, weighed, and trimmed to the most distal 5 cm, of this distal and proximal 2 cm portions are placed in formalin for histological evaluation, while the central 1 cm is snap-frozen in liquid nitrogen, and stored for analysis; and the liver is excised, weighed, snap-frozen in liquid nitrogen, and stored for analysis.

[4] = tested on: wild-type female C57BL/6 mice; experiment: Preclinical Lieber-DeCarli ethanol diet mouse model (alcoholic liver disease / intestinal barrier function); assay type: in vivo
Excerpt: Age-matched wild-type female C57BL/6 mice (Charles River, Wilmington, Mass.), 8-9 weeks old at the initiation of the study, were used.
The Lieber-DeCarli ethanol diet was originally developed by Charles Lieber and Leonore DeCarli in 1963. This diet allows for the prolonged exposure of ethanol in a rodent model and allows for modification to calories provided by ethanol. […] The caloric intake from ethanol was 0% on day 1, 10% on days 2 and 3, 20% on days 4 and 5, 30% from day 6 until the end of 6 weeks, and 36% for the last 2 weeks, for a total in-life time of eight weeks. The ethanol-fed mice also received one bolus dose of 33% v/v ethanol at 5 g/Kg on the last in-life day. The control diet contained an isocaloric substitution of isomaltose for the ethanol. […] In the prevention portions of the study, including with the control diet, seladelpar was added throughout the entire study period; in the intervention portion of the study, seladelpar was added only for the fifth through eighth weeks. Fresh feces were collected at 7.5 weeks. All mice were sacrificed after eight weeks; the ethanol-fed mice eight hours after the ethanol bolus. At sacrifice, body and liver weight were recorded; and blood/plasma, liver, gallbladder, small and large intestine (wall and contents) and cecum were harvested. Analyses included plasma ALT—to measure […]; hepatic TGs; plasma lipopolysaccharides (LPS)—to measure the extent of bacterial leakage from the intestine into the blood; fecal albumin (FA)—to measure the extent of albumin leakage from the blood into the intestine (feces); and total bile acids, measured by liquid chromatography-mass spectrometry (LC-MS) generally according to the method described in Hartmann et al., “Modulation of the Intestinal Bile Acid/Farnesoid X Receptor/Fibroblast Growth Factor 15 Axis Improves Alcoholic Liver Disease in Mice”, Hepatology, 67(6), 2150-2166 (2018).
The study results are given in the table below: standard errors of the means are in parentheses, n denotes the number of mice measured, and ANOVA denotes the significance value of an ANOVA analysis between groups 3, 4, and 5:
Formalin-fixed liver sections were stained for histological examination with hematoxylin and eosin (H+E).

[5] = tested on: atherogenic diet-fed obese diabetic (Alms1 mutant (foz/foz)) mice; conditions: cited from earlier work
[6] = alcohol diet, groups 4 and 5 vs untreated group 3, ANOVA

Q: For CCO[C@H](COc1ccc(C(F)(F)F)cc1)CSc1ccc(OCC(=O)O)c(C)c1 [seladelpar], which “specificity for PPARδ compared with PPARα” value [1] is on record?
A: The value was greater than 600 fold.

Q: What about the “IBS symptoms recorded in health diary” value ([2]; 2, 5, 10, 20, 50 or 100 mg/day oral for 12 weeks) of the same compound?
A: Its value is “general improvement in their IBS symptoms”.

Q: What about the “improvement of disease (management of IBS, gastrointestinal symptoms)” value ([2]; 2-100 mg/day oral for 12 weeks) of the same compound?
A: Its value is “dose-related improvement in their disease”.

Q: What about the “colitis (body weight, endoscopic and histologic examination)” value [3] of the same compound?
A: The value was “ameliorates the colitis”.

Q: What about the “liver histology (H+E)” value ([4]; alcohol diet, prevention and intervention, comparing group 3 with groups 4 and 5) of the same compound?
A: Its value is “significant reduction of steatosis and restoration of a more normal architecture”.

Q: And the “serum ALT, change versus untreated” value ([4]; alcohol diet, groups 4 and 5 (prevention and intervention) vs untreated group 3, ANOVA)?
A: Its value is “significant reductions (improvements)”.

Q: What about the “fecal albumin, change versus untreated” value [4, 6] of the same compound?
A: Its value is “significant reduction (improvement)”.

Q: What about the “hepatic TGs, change versus untreated” value [4, 6] of the same compound?
A: Its value is “significant reductions (improvements)”.

Q: And the “serum LPS, change versus untreated” value [4, 6]?
A: The value was “significant reductions (improvements)”.

Q: What about the “total bile acids, change versus untreated” value [4, 6] of the same compound?
A: The value was “significant reductions (improvements)”.

Q: What about the “effect on ALT, hepatic TGs, plasma LPS, FA and total bile acids (any of the above parameters)” value ([4]; control diet groups, seladelpar prevention (group 2 vs group 1)) of the same compound?
A: The value was “did not significantly affect”.

Q: And the “liver histology (H+E)” value ([4]; control diet, comparing groups 1 and 2)?
A: Its value is “no significant change”.

Q: What about the “NASH pathology (hepatic steatosis, inflammation, fibrosis)” value [5] of the same compound?
A: Its value is “improves NASH pathology”.
